The source of these data is PMC5112578, “Zika antiviral chemotherapy: identification of drugs and promising starting points for drug discovery from an FDA-approved library” (F1000Research, 2016).

The structures appear in SMILES notation. Structures can show the parent of a compound that is named as a salt. Where two headings read alike, the source gives them in different places. Numbered stars: 1 amine (or outer) side, 2 acyl side, 3 side chain; on linkers, the order of the positions; unused ones are H or OH. Bridge positions count the residues as written; N and C are the ends. Square brackets hold non-standard residues; d marks the D form. Peptide text beside a SMILES is read from it. I, II: the chains in the order shown. Actinocin(9to1) = Cc1c2oc3c(C)ccc(C(=O)[*:1])c3nc-2c(C(=O)[*:2])c(N)c1=O; NMeV = CN[C@H](C(=O)O)C(C)C; Sar = CNCC(=O)O

Data set [1] relates to Zika virus (ZIKV).
The conditions of data set [2]: Table 2; no reference given; cited from earlier work.
The test system of data set [3] is Zika virus (ZIKV). As to the kind of experiment: ZIKV high content screening assay (infection ratio by immunofluorescence in Huh7). The settings on record: for Max. Activity (% of infection inhibition) / S.I. (CC 50/EC 50): Table 2; for Max. Activity (% of infection inhibition): dose-response; for Max. Activity (% of infection inhibition) / activity: Huh7, ZIKV, 72 h; for activity: in our assay, library screened at 20 µM; for S.I. (CC 50/EC 50): SI = CC50/EC50, Huh7; for SI: SI = CC50/EC50.

A further data set relates to Huh7 cells. Nature of the data set: Cell toxicity / cell ratio in the ZIKV high content assay. The settings on record: for toxicity: in our assay, library screened at 20 µM, Huh7, 72 h; for CC50: Table S2, 50% reduction in cell viability vs infected IFNα2A treated cells, 72 h.
The conditions of data set [4]: in humans; no reference given; cited from earlier work.
The mark [5] stands for this setting: Table S2, 9 point DRC from 50 µM, Huh7, ZIKV MOI 0.5, 72 h.

Turning to `O=c1[nH]cc(F)c(=O)[nH]1` [5-Fluorouracil], the “S.I. (CC 50/EC 50)” value in the data set with Zika virus (ZIKV) [1] is greater than 2.5. Further, in data set [2], the “Water Solubility” value is 12500 µg/mL. Moreover, the “Max. Activity (% of infection inhibition)” value with Zika virus (ZIKV) [3] came to 57%. The EC50 in the data set on Zika virus (ZIKV) [3] (Zika virus, Huh-7, 72 h) stood at 14.3 ± 8.6 µM.
`O=c1cnn([C@@H]2O[C@H](CO)[C@@H](O)[C@H]2O)c(=O)[nH]1` [6-Azauridine]: in data set [2], the “Water Solubility (mg/mL)” value is reported as “Very high”. Also, in the data set on Zika virus (ZIKV) [3], the “Max. Activity (% of infection inhibition)” value is given as 88.3%. In the data set with Zika virus (ZIKV) [3] (Zika virus, Huh-7, 72 h), the 50% effective concentration (EC50) was found to be 2.3 ± 0.1 µM.
As for `Cn1cnc([N+](=O)[O-])c1Sc1ncnc2nc[nH]c12` [Azathioprine], the toxicity result with Huh7 cells is listed as “higher than 50%”.
For `CC(C)/N=c1\cc2n(-c3ccc(Cl)cc3)c3ccccc3nc-2cc1Nc1ccc(Cl)cc1` [Clofazimine], the activity entry in the data set on Zika virus (ZIKV) [3] is recorded as “lower than 50%”.
`Cc1c2oc3c(C)ccc(C(=O)N[C@@H]4C(=O)N[C@H](C(C)C)C(=O)N5CCC[C@H]5C(=O)N(C)CC(=O)N(C)[C@@H](C(C)C)C(=O)O[C@@H]4C)c3nc-2c(C(=O)N[C@@H]2C(=O)N[C@H](C(C)C)C(=O)N3CCC[C@H]3C(=O)N(C)CC(=O)N(C)[C@@H](C(C)C)C(=O)O[C@@H]2C)c(N)c1=O` [Dactinomycin] (I: T[dV]P[Sar][NMeV] / II: T[dV]P[Sar][NMeV]; ester I:1-I:C, II:1-II:C; linker I:N-II:N via Actinocin(9to1)): the toxicity result with Huh7 cells is “higher than 50%”.
Still for that read-out and setting: the same measure for `C[C@H]1O[C@@H](O[C@H]2[C@@H](O)C[C@H](O[C@H]3[C@@H](O)C[C@H](O[C@H]4CC[C@@]5(C)[C@H](CC[C@@H]6[C@@H]5C[C@@H](O)[C@]5(C)[C@@H](C7=CC(=O)OC7)CC[C@]65O)C4)O[C@@H]3C)O[C@@H]2C)C[C@H](O)[C@@H]1O` [Digoxin]: “higher than 50%”.
Turning to `CO[C@@H]1[C@@H](O[C@@H]2O[C@H](C)[C@@H](O[C@H]3C[C@@](C)(O)[C@@H](OC(=O)CC(C)C)[C@H](C)O3)[C@H](N(C)C)[C@H]2O)[C@@H](CC=O)C[C@@H](C)[C@@H](O)/C=C/C=C/C[C@@H](C)OC(=O)C[C@H]1O` [Kitasamycin], the “Water Solubility” value in data set [2] was 50 µg/mL. In the data set with Zika virus (ZIKV) [3], the “S.I. (CC 50/EC 50)” value is given as greater than 1.2 and the “Max. Activity (% of infection inhibition)” value is recorded as 69.1%. In addition, in the data set with Zika virus (ZIKV) [3] (Zika virus, Huh-7, 72 h), the EC50 was found to be 41.7 ± 10.1 µM.
As for `CC[C@H](C)C(=O)O[C@H]1C[C@@H](C)C=C2C=C[C@H](C)[C@H](CC[C@@H]3C[C@@H](O)CC(=O)O3)[C@H]21` [Lovastatin], in the data set with Zika virus (ZIKV) [3], the “S.I. (CC 50/EC 50)” value is given as greater than 2.5 and the “Max. Activity (% of infection inhibition)” value is listed as 60.7%. Moreover, the EC50 with Zika virus (ZIKV) [3] (Zika virus, Huh-7, 72 h) was 20.7 ± 8.6 µM.
Turning to `COC(=O)Nc1nc2ccc(C(=O)c3ccccc3)cc2[nH]1` [Mebendazole], in the data set with Huh7 cells, the toxicity result was “higher than 50%”.
Same read-out and setting: the same measure for `OC(c1cc(C(F)(F)F)nc2c(C(F)(F)F)cccc12)C1CCCCN1` (centres unmarked) [Mefloquine]: “higher than 50%”.
For the compound `S=c1[nH]cnc2nc[nH]c12` [Mercaptopurine], in the data set with Zika virus (ZIKV) [3], the activity entry is “lower than 50%”.
On the same count and under the same terms, next, `COc1c2occc2cc2ccc(=O)oc12` [Methoxsalen]: “lower than 50%”.
For the compound `O=C1c2cccc3c2[C@H](CCC3)CN1[C@@H]1CN2CCC1CC2` [Palonosetron], the “S.I. (CC 50/EC 50)” value in the data set on Zika virus (ZIKV) [1] is listed as greater than 3.06. The “Water Solubility (mg/mL)” value in data set [2] is given as “Very high”. Further, the bioavailability in data set [4] is 97%. Also, the “Max. Activity (% of infection inhibition)” value with Zika virus (ZIKV) [3] stood at 97.7%. Also, the EC50 with Zika virus (ZIKV) [3] (Zika virus, Huh-7, 72 h) was found to be 16.3 ± 7.7 µM.
On to `Clc1ccc2c(c1)CCc1cccnc1C2=C1CCNCC1` [SAM001246545], for which the CC50 with Huh7 cells is 20.7 ± 4.1 µM.
On to `Cc1ccc(NC(=O)c2ccc(CN3CCN(C)CC3)cc2)cc1Nc1nccc(-c2cccnc2)n1` [SAM001246622], for which the EC50 with Zika virus (ZIKV) [3] (setting [5]) is 13.3 ± 5.8 µM.
Consider `COCCCC/C(=N\OCCN)c1ccc(C(F)(F)F)cc1.O=C(O)/C=C\C(=O)O` [SAM001246977], for which the 50% cytotoxic concentration (CC50) with Huh7 cells was 24.3 ± 3.1 µM. Also, the EC50 in the data set with Zika virus (ZIKV) [3] (setting [5]) worked out at 17 ± 3.6 µM. The SI in the data set on Zika virus (ZIKV) [3] (Table S2) is reported as 1.43.
With `CN1CCN(CCCN2c3ccccc3Sc3ccc(Cl)cc32)CC1.O=C(O)/C=C\C(=O)O.O=C(O)/C=C\C(=O)O` [SAM001247054], in the data set with Huh7 cells, the CC50 was 9 ± 4.4 µM. Moreover, the half-maximal effective concentration (EC50) in the data set on Zika virus (ZIKV) [3] (setting [5]) was 10.3 ± 3.1 µM. Further, the SI in the data set with Zika virus (ZIKV) [3] (Table S2) is recorded as 0.87.
For `Clc1ccccc1C(c1ccccc1)(c1ccccc1)n1ccnc1` [SAM001247056] the same measures were 8.7 ± 1.2 µM, 14.3 ± 3.5 µM and 0.6.
In the case of `CC(C)c1ccc2c(c1)c(SC(C)(C)C)c(CC(C)(C)C(=O)O)n2Cc1ccc(Cl)cc1` [SAM001247075], the cytotoxic concentration (CC50) in the data set with Huh7 cells stood at 33.7 ± 10.8 µM. Besides, the concentration giving a half-maximal response (EC50) in the data set with Zika virus (ZIKV) [3] (setting [5]) came to 12 ± 1.7 µM. Also, in the data set with Zika virus (ZIKV) [3] (Table S2), the SI turned out to be 2.8.
In the case of `Oc1cc2c(cc1O)[C@H]1c3ccccc3CN[C@@H]1CC2` [SAM001247083], the CC50 with Huh7 cells is 16.5 µM. Moreover, in the data set on Zika virus (ZIKV) [3] (setting [5]), the concentration for a half-maximal effect (EC50) turned out to be 21.5 ± 0.7 µM.
Turning to `N=C(NCc1ccc(Cl)cc1)SCCCc1c[nH]cn1` [SAM001247107], in the data set with Huh7 cells, the CC50 is 19.3 ± 9.7 µM. Besides, in the data set with Zika virus (ZIKV) [3] (setting [5]), the half-maximal effective concentration (EC50) stood at 14 µM. Besides, the SI in the data set with Zika virus (ZIKV) [3] (Table S2) amounted to 1.38.
`CC(CN1c2ccccc2Sc2ccccc21)N(C)C.Cl` (centres unmarked) [SAM002264636]: the cytotoxic concentration (CC50) in the data set on Huh7 cells amounted to 28.3 ± 17.6 µM. Besides, in the data set on Zika virus (ZIKV) [3] (setting [5]), the 50% effective concentration (EC50) was 19.7 ± 4.5 µM. In the data set with Zika virus (ZIKV) [3] (Table S2), the SI is reported as 1.44.
For `CN1C2CCC1CC(OC(c1ccccc1)c1ccccc1)C2.CS(=O)(=O)O` (centres unmarked) [SAM002548938] the same measures were 31.3 ± 15.3 µM, 21.3 ± 10 µM and 1.47.
For `Clc1ccc2c(c1)C(N1CCNCC1)=Nc1ccccc1O2` [SAM002564189] the same measures were 11.7 ± 11 µM, 19.3 ± 5.5 µM and 0.6.
On to `CN[C@H]1CC[C@@H](c2ccc(Cl)c(Cl)c2)c2ccccc21` [Sertraline-HCl], for which the activity result with Zika virus (ZIKV) [3] is given as “lower than 50%”.

By EC50 is commonly meant the concentration that produces a half-maximal response. Usually bioavailability stands for the share of a dose that reaches the circulation, judged against a reference dose that is usually intravenous. By CC50 is commonly meant the concentration giving 50% cytotoxicity.
